Columns and labels:
[1] = target: Cyclin-dependent kinase 13 (Homo sapiens) (UniProt Q14004); conditions: Compound concentration 1000.0 nM
[2] = target: Serine/threonine-protein kinase VRK2 (Homo sapiens) (UniProt Q86Y07); conditions: Compound concentration 1000.0 nM
[3] = target: Delta-type opioid receptor (Homo sapiens) (UniProt P41143); conditions: Compound concentration 10.0 uM
[4] = target: Phosphatidylinositol 3-kinase C2 domain-containing subunit gamma (Homo sapiens) (UniProt O75747); conditions: Compound concentration 1000.0 nM
[5] = target: Serine/threonine-protein kinase Nek6 (Homo sapiens) (UniProt Q9HC98); conditions: Compound concentration 1000.0 nM
[6] = target: Serine/threonine-protein kinase haspin (Homo sapiens) (UniProt Q8TF76); conditions: Compound concentration 1000.0 nM
[7] = target: Mu-type opioid receptor (Homo sapiens) (UniProt P35372); conditions: Compound concentration 10.0 uM
[8] = target: Serine/threonine-protein kinase DCLK3 (Homo sapiens) (UniProt Q9C098); conditions: Compound concentration 1000.0 nM
[9] = target: Tyrosine-protein kinase ABL1 (Homo sapiens) (UniProt P00519); conditions: Compound concentration 1000.0 nM
[10] = target: Serine/threonine-protein kinase B-raf (Homo sapiens) (UniProt P15056); conditions: Compound concentration 1000.0 nM
[11] = target: Ribosomal protein S6 kinase alpha-2 (Homo sapiens) (UniProt Q15349); conditions: Compound concentration 1000.0 nM
[12] = test system: Receptor-type tyrosine-protein kinase FLT3 (Homo sapiens), P36888 [UNDEFINED MUTATION]; conditions: Compound concentration 1000.0 nM
[13] = target: Receptor tyrosine-protein kinase erbB-3 (Homo sapiens) (UniProt P21860); conditions: Compound concentration 1000.0 nM
[14] = target: Serine/threonine-protein kinase TAO2 (Homo sapiens) (UniProt Q9UL54); conditions: Compound concentration 1000.0 nM
[15] = target: Muscarinic acetylcholine receptor M5 (Homo sapiens) (UniProt P08912); conditions: Compound concentration 10.0 uM
[16] = target: T1, Muscarinic acetylcholine receptor M1 (Homo sapiens) (UniProt P11229); conditions: Compound concentration 10.0 uM
T1 sequence (whole entry): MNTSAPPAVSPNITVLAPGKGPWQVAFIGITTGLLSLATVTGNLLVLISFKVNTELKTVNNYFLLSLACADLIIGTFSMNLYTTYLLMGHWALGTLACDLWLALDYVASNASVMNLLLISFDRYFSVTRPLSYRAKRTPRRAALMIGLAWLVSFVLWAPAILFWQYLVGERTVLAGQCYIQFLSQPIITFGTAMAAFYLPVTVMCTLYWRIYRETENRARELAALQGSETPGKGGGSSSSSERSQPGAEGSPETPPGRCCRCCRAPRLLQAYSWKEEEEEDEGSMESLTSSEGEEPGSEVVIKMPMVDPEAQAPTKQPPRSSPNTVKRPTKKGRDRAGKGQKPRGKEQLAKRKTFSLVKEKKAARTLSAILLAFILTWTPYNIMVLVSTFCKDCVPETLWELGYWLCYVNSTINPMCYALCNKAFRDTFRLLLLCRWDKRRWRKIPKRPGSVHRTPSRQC

[17] = target: GABA-A receptor; anion channel (Rattus norvegicus) (UniProt O09028+P15431+P18506+P18508+P19969+P20236+P23574+P23576+P28471+P28473+P30191+P62813+P63079+P63138+Q91ZM7+Q9ES14); conditions: Compound concentration 10.0 uM
[18] = target: Aurora kinase A (Homo sapiens) (UniProt O14965); conditions: Compound concentration 1000.0 nM
[19] = target: Myosin-IIIb (Homo sapiens) (UniProt Q8WXR4); conditions: Compound concentration 1000.0 nM
[20] = test system: Proto-oncogene tyrosine-protein kinase receptor Ret (Homo sapiens), P07949 [V804L]; conditions: Compound concentration 1000.0 nM
[21] = target: Serine/threonine-protein kinase Nek3 (Homo sapiens) (UniProt P51956); conditions: Compound concentration 1000.0 nM
[22] = target: Serine/threonine-protein kinase Nek1 (Homo sapiens) (UniProt Q96PY6); conditions: Compound concentration 1000.0 nM
[23] = target: Tyrosine-protein kinase FRK (Homo sapiens) (UniProt P42685); conditions: Compound concentration 1000.0 nM
[24] = target: Serine/threonine-protein kinase TAO3 (Homo sapiens) (UniProt Q9H2K8); conditions: Compound concentration 1000.0 nM
[25] = target: Ephrin type-A receptor 8 (Homo sapiens) (UniProt P29322); conditions: Compound concentration 1000.0 nM
[26] = target: Non-receptor tyrosine-protein kinase TYK2 (Homo sapiens) (UniProt P29597); conditions: Compound concentration 1000.0 nM
[27] = target: Casein kinase I isoform gamma-3 (Homo sapiens) (UniProt Q9Y6M4); conditions: Compound concentration 1000.0 nM
[28] = test system: Proto-oncogene tyrosine-protein kinase receptor Ret (Homo sapiens), P07949 [V804M]; conditions: Compound concentration 1000.0 nM
[29] = target: Serine/threonine-protein kinase 32C (Homo sapiens) (UniProt Q86UX6); conditions: Compound concentration 1000.0 nM
[30] = target: Serine/threonine-protein kinase Nek5 (Homo sapiens) (UniProt Q6P3R8); conditions: Compound concentration 1000.0 nM
[31] = test system: Tyrosine-protein kinase ABL1 (Homo sapiens), P00519 [E255K]; conditions: Compound concentration 1000.0 nM
[32] = target: Tyrosine-protein kinase SYK (Homo sapiens) (UniProt P43405); conditions: Compound concentration 1000.0 nM
[33] = target: Protein kinase C iota type (Homo sapiens) (UniProt P41743); conditions: Compound concentration 1000.0 nM
[34] = target: Dual specificity tyrosine-phosphorylation-regulated kinase 2 (Homo sapiens) (UniProt Q92630); conditions: Compound concentration 1000.0 nM
[35] = target: Serine/threonine-protein kinase SBK1 (Homo sapiens) (UniProt Q52WX2); conditions: Compound concentration 1000.0 nM
[36] = target: Phosphorylase b kinase gamma catalytic chain, skeletal muscle/heart isoform (Homo sapiens) (UniProt Q16816); conditions: Compound concentration 1000.0 nM
[37] = target: Serine/threonine-protein kinase Chk2 (Homo sapiens) (UniProt O96017); conditions: Compound concentration 1000.0 nM
Serine/threonine-protein kinase Chk2 (Homo sapiens), sequence (O96017 whole entry): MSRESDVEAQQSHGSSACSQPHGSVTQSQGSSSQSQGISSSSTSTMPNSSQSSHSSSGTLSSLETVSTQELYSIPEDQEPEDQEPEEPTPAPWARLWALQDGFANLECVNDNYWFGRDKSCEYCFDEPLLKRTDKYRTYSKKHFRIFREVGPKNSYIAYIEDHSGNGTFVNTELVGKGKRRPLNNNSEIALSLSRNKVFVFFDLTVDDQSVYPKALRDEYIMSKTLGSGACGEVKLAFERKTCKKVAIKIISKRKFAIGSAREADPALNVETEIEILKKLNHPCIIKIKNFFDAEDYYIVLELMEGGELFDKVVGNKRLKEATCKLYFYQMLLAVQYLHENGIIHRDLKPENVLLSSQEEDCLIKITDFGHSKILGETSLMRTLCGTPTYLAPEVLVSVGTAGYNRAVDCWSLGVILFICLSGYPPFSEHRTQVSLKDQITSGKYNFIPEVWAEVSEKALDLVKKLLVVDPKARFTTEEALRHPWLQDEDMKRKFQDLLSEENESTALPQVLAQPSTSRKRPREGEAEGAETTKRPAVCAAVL

Proto-oncogene tyrosine-protein kinase receptor Ret (Homo sapiens), P07949 [V804L], sequence (P07949 whole entry V804L): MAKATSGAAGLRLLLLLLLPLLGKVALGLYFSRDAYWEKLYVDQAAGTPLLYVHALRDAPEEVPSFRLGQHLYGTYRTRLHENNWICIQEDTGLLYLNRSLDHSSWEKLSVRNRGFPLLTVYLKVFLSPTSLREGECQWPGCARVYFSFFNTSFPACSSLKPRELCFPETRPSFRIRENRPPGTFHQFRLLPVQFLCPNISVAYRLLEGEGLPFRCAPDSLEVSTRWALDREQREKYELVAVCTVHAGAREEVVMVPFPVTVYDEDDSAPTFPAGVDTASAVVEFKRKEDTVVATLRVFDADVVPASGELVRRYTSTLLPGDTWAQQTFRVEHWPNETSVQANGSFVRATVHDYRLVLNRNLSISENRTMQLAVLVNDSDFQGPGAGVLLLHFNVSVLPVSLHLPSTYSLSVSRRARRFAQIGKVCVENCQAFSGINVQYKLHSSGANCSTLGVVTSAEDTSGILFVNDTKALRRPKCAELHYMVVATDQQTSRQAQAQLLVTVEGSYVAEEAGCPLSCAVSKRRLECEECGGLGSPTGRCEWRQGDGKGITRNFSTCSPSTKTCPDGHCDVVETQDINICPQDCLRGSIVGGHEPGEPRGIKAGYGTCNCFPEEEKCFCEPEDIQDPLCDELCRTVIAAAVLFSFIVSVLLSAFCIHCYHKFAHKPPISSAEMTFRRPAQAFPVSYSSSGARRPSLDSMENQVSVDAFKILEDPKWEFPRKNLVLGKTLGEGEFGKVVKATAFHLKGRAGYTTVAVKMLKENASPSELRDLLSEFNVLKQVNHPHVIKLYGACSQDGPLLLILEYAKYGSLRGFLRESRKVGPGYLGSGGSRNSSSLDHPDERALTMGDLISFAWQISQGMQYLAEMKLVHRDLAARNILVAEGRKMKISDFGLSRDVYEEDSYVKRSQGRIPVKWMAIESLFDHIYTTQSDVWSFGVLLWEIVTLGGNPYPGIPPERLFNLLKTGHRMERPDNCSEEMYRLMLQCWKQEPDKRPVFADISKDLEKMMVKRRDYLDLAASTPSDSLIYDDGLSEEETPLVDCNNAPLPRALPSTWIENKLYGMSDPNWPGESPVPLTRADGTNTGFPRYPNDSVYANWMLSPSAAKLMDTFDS
Serine/threonine-protein kinase Nek1 (Homo sapiens), sequence (Q96PY6 whole entry): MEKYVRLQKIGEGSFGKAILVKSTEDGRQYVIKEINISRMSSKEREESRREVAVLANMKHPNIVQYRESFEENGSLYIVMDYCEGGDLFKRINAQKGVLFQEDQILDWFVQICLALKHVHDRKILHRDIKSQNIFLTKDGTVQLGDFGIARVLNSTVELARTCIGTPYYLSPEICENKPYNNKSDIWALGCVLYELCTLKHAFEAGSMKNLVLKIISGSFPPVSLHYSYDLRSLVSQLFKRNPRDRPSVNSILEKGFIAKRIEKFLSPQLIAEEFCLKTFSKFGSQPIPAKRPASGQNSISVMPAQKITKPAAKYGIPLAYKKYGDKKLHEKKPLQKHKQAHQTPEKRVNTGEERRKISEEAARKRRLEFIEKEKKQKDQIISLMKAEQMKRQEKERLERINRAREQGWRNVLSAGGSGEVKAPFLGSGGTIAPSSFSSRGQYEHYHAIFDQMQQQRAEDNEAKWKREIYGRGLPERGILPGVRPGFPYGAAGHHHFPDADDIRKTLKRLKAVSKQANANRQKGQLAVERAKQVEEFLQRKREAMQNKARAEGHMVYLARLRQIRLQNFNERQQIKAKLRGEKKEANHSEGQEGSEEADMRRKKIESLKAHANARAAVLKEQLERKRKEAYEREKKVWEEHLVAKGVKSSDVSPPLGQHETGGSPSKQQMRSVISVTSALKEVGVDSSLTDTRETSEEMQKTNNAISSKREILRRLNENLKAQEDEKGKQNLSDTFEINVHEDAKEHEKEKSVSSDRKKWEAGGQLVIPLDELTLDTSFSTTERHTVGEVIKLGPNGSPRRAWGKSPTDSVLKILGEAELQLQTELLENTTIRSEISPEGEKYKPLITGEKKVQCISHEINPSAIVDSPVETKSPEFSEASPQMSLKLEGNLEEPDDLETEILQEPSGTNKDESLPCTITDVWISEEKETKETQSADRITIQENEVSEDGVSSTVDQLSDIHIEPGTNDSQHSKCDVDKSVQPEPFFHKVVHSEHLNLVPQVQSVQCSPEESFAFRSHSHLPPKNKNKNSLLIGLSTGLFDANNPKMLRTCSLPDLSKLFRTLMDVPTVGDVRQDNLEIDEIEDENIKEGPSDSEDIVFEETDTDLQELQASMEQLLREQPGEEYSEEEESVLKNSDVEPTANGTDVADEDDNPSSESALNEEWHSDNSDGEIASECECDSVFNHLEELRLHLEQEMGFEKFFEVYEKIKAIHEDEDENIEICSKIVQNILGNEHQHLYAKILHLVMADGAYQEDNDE
Ribosomal protein S6 kinase alpha-2 (Homo sapiens), sequence (Q15349 whole entry): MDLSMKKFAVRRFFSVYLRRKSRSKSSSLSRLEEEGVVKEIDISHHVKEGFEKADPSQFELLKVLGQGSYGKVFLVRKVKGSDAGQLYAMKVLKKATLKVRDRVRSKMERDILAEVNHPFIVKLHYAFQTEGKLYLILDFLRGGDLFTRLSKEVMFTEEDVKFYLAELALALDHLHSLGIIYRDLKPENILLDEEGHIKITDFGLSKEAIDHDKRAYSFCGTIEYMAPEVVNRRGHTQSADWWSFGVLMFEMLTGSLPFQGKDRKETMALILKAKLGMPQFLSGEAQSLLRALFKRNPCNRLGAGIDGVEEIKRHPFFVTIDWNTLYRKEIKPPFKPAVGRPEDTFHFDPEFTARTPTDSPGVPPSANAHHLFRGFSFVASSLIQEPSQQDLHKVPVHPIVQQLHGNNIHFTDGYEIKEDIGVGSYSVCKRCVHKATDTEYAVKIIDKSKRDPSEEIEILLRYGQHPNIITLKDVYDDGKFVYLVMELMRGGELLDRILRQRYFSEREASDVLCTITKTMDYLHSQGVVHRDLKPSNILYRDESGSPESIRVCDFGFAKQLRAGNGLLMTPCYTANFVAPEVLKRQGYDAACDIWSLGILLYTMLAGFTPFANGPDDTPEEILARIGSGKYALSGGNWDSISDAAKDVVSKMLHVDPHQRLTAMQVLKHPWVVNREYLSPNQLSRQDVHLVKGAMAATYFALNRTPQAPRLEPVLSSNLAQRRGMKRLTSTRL
Serine/threonine-protein kinase Nek5 (Homo sapiens), sequence (Q6P3R8 whole entry): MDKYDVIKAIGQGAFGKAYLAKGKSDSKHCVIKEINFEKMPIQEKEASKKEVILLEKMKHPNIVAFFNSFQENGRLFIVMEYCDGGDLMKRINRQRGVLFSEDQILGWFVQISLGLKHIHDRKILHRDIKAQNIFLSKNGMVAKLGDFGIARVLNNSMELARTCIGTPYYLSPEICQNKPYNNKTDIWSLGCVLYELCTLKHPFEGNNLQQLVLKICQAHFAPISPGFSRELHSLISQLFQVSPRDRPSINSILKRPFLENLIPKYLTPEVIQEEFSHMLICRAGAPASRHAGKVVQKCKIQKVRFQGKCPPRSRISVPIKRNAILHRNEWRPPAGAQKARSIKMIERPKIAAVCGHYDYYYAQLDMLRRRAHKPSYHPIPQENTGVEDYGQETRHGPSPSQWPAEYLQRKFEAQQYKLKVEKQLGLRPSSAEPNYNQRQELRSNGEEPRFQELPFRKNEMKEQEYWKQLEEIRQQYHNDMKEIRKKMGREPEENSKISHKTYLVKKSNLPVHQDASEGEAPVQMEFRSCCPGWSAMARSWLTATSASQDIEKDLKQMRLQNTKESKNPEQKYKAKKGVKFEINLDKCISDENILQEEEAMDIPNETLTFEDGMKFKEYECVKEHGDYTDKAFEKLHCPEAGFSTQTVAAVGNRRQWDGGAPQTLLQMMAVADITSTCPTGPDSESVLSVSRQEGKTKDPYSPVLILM
Protein kinase C iota type (Homo sapiens), sequence (P41743 whole entry): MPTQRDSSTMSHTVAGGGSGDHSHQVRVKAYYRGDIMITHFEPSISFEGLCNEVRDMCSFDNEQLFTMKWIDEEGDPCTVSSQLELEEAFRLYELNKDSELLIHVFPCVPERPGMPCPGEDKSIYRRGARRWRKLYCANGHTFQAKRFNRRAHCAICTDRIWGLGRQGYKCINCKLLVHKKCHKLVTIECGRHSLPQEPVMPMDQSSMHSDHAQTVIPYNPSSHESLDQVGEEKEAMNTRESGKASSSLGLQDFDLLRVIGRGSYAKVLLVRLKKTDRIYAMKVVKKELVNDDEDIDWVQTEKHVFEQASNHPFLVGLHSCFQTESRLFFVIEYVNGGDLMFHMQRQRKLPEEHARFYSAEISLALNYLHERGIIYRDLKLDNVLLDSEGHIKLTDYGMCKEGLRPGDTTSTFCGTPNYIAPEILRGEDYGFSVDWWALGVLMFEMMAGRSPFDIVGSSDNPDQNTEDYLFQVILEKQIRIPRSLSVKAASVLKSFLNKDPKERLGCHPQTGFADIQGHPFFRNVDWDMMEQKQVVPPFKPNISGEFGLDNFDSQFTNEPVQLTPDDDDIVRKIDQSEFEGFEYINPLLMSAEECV
Proto-oncogene tyrosine-protein kinase receptor Ret (Homo sapiens), P07949 [V804M], sequence (P07949 whole entry V804M): as the sequence (P07949 whole entry V804L) above, with L804M counted along it

CC(=O)N1CCC(c2ccc(C(=O)NC3=NCCN3)cc2C(F)(F)F)CC1 [BI 0054]
inactive: residual activity [1] 100% | residual activity [2] 100% | inhibition [3] -0.82% | residual activity [4] 85% | residual activity [5] 100% | residual activity [6] 78% | inhibition [7] -2.53% | residual activity [8] 100% | residual activity [9] 95% | residual activity [10] 100% | residual activity [11] 83% | residual activity [12] 89% | residual activity [13] 94% | residual activity [14] 100% | inhibition [15] 14.9% | inhibition [16] -7.86% | inhibition [17] 25.3% | residual activity [18] 100% | residual activity [19] 100% | residual activity [20] 100% | residual activity [21] 63% | residual activity [22] 100% | residual activity [23] 97% | residual activity [24] 87% | residual activity [25] 93% | residual activity [26] 100% | residual activity [27] 100% | residual activity [28] 100% | residual activity [29] 100% | residual activity [30] 100% | residual activity [31] 82% | residual activity [32] 100% | residual activity [33] 83% | residual activity [34] 93% | residual activity [35] 97% | residual activity [36] 100% | residual activity [37] 100%

CC(=O)N1CCC(c2ccc(C(=O)NC(=N)N)cc2C(F)(F)F)CC1 [BI 9627]
inactive: residual activity [1] 100% | residual activity [2] 100% | inhibition [3] -5.35% | residual activity [4] 100% | residual activity [5] 100% | residual activity [6] 100% | inhibition [7] 8.98% | residual activity [8] 98% | residual activity [9] 93% | residual activity [10] 100% | residual activity [11] 97% | residual activity [12] 100% | residual activity [13] 98% | residual activity [14] 94% | inhibition [15] -8.36% | inhibition [16] 12.4% | inhibition [17] 13.9% | residual activity [18] 87% | residual activity [19] 100% | residual activity [20] 97% | residual activity [21] 79% | residual activity [22] 100% | residual activity [23] 100% | residual activity [24] 86% | residual activity [25] 100% | residual activity [26] 100% | residual activity [27] 100% | residual activity [28] 100% | residual activity [29] 100% | residual activity [30] 100% | residual activity [31] 100% | residual activity [32] 100% | residual activity [33] 100% | residual activity [34] 89% | residual activity [35] 100% | residual activity [36] 100% | residual activity [37] 100%

— ChEMBL document CHEMBL4507279, “Data for DCP probe BI-9627” (2021)
